Experimental data: patent US20240000872A1, “NOVEL BACTERIOPHAGE THAT LYSES ACINETOBACTER GENUS BACTERIA HAVING RESISTANCE TO ANTIBIOTICS” (priority 2020, published 2024)

Tested on: Acinetobacter baumannii strains
Assay: Antibiotic susceptibility test (CLSI disk diffusion test method, read per CLSI 2016)
Format: cell-based
Method: (§1) Strain identification was performed using a kit such as AT 32 GN system (bioMérieux, Marcy l'Etoile, France). […] In Table 2 below, S, I, and R are the results obtained by evaluating susceptibility to the antibacterial agents, in which ‘S’ means susceptible, ‘I’ means intermediate, and ‘R’ means resistant.
as §1, with “as ATB” for “as AT”, “system (bioMédrieux,” for “system (bioMérieux,”, “Table 6” for “Table 2”
as §1, with “as ATB” for “as AT”, “Table 10” for “Table 2”, “susceptible, T” for “susceptible, ‘I’”

For `CN(C)c1ccc(O)c2c1C[C@H]1C[C@H]3[C@H](N(C)C)C(O)=C(C(N)=O)C(=O)[C@@]3(O)C(O)=C1C2=O` [Minocycline, minocycline], the antibiotic susceptibility class (host strain YMC14/01/C29) was “S”, the antibiotic susceptibility class (host strain YMC14/01/IP122) was “S” and the antibiotic susceptibility class (host strain YMC14/01/L8) was “S”. For the same compound, the antibiotic susceptibility class (host strain YMC14/01/P31) was “S”, the antibiotic susceptibility class (host strain YMC14/01/P117) was “S” and the antibiotic susceptibility class (host strain YMC14/01/P224) was “S”. The antibiotic susceptibility class (host strain YMC14/01/P727) was “S”, the antibiotic susceptibility class (host strain YMC14/01/P728) was “S” and the antibiotic susceptibility class (host strain YMC14/01/R130) was “S”. For the same compound, the antibiotic susceptibility class (host strain YMC14/01/R160) was “I”, the antibiotic susceptibility class (host strain YMC14/01/R198) was “I” and the antibiotic susceptibility class (host strain YMC14/01/R257) was “I”. The antibiotic susceptibility class (host strain YMC14/01/R270) was “S”, the antibiotic susceptibility class (host strain YMC14/01/R324) was “S” and the antibiotic susceptibility class (host strain YMC14/01/R443) was “I”. The antibiotic susceptibility class (host strain YMC14/01/R451) was “R”, the antibiotic susceptibility class (host strain YMC14/01/R560) was “R” and the antibiotic susceptibility class (host strain YMC14/01/R617) was “R”. For the same compound, the antibiotic susceptibility class (host strain YMC14/01/R671) was “I”, the antibiotic susceptibility class (host strain YMC14/01/R732) was “S” and the antibiotic susceptibility class (host strain YMC14/01/R767) was “S”. For the same compound, the antibiotic susceptibility class (host strain YMC14/01/R904) was “I”, the antibiotic susceptibility class (host strain YMC14/01/R905) was “I” and the antibiotic susceptibility class (host strain YMC14/01/R921) was “S”. For the same compound, the antibiotic susceptibility class (host strain YMC14/01/R941) was “S”, the antibiotic susceptibility class (host strain YMC14/01/R958) was “S” and the antibiotic susceptibility class (host strain YMC14/01/R1006) was “S”. The antibiotic susceptibility class (host strain YMC14/01/R1199) was “S”, the antibiotic susceptibility class (host strain YMC14/01/R1659) was “S” and the antibiotic susceptibility class (host strain YMC14/01/R1722) was “S”. For the same compound, the antibiotic susceptibility class (host strain YMC14/01/R1752) was “S”, the antibiotic susceptibility class (host strain YMC14/01/R2429) was “S” and the antibiotic susceptibility class (host strain YMC14/01/R2572) was “S”. The antibiotic susceptibility class (host strain YMC14/01/R2855) was “S”, the antibiotic susceptibility class (host strain YMC14/01/R2945) was “S” and the antibiotic susceptibility class (host strain YMC14/01/R3007) was “S”. The antibiotic susceptibility class (host strain YMC14/01/R3129) was “S”, the antibiotic susceptibility class (host strain YMC14/01/R3317) was “S” and the antibiotic susceptibility class (host strain YMC14/01/R3474) was “S”. The antibiotic susceptibility class (host strain YMC14/01/R3574) was “S”, the antibiotic susceptibility class (host strain YMC14/01/U313) was “S” and the antibiotic susceptibility class (host strain YMC14/01/U318) was “I”. The antibiotic susceptibility class (host strain YMC14/02/L18) was “S”, the antibiotic susceptibility class (host strain YMC14/02/P47) was “S” and the antibiotic susceptibility class (host strain YMC14/02/R1860) was “S”. The antibiotic susceptibility class (host strain YMC14/02/R2417) was “S”, the antibiotic susceptibility class (host strain YMC14/02/R2599) was “S” and the antibiotic susceptibility class (host strain YMC14/02/R2668) was “S”. The antibiotic susceptibility class (host strain YMC14/02/R2758) was “S”, the antibiotic susceptibility class (host strain YMC14/02/R2781) was “S” and the antibiotic susceptibility class (host strain YMC14/02/R3106) was “S”. The antibiotic susceptibility class (host strain YMC14/02/R3419) was “S”, the antibiotic susceptibility class (host strain YMC14/02/U1607) was “S” and the antibiotic susceptibility class (host strain YMC14/03/L9) was “S”. The antibiotic susceptibility class (host strain YMC14/03/P471) was “S”, the antibiotic susceptibility class (host strain YMC14/03/R122) was “S” and the antibiotic susceptibility class (host strain YMC14/03/R217) was “S”. For the same compound, the antibiotic susceptibility class (host strain YMC14/03/R380) was “S”, the antibiotic susceptibility class (host strain YMC14/03/R618) was “S” and the antibiotic susceptibility class (host strain YMC14/03/R2144) was “S”. For the same compound, the antibiotic susceptibility class (host strain YMC14/03/U4616) was “S”, the antibiotic susceptibility class (host strain YMC14/04/R1078) was “S” and the antibiotic susceptibility class (host strain YMC14/04/R1080) was “S”. The “antibiotic susceptibility S/I/R” value (host strain YMC14/06/R2359) was “S”, the “susceptibility category (S/I/R)” value (host strain YMC14/06/R2359) was “S” and the “antibiotic susceptibility S/I/R” value (host strain YMC14/08/R1169) was “S”. For the same compound, the “susceptibility category (S/I/R)” value (host strain YMC14/08/R1169) was “S”, the “antibiotic susceptibility S/I/R” value (host strain YMC14/08/T90) was “S” and the “susceptibility category (S/I/R)” value (host strain YMC14/08/T90) was “S”. The “antibiotic susceptibility S/I/R” value (host strain YMC15/02/R436) was “R”, the “susceptibility category (S/I/R)” value (host strain YMC15/02/R436) was “R” and the “antibiotic susceptibility S/I/R” value (host strain YMC15/02/T28) was “S”. The “susceptibility category (S/I/R)” value (host strain YMC15/02/T28) was “S”, the “antibiotic susceptibility S/I/R” value (host strain YMC15/03/R1604) was “S” and the “susceptibility category (S/I/R)” value (host strain YMC15/03/R1604) was “S”. For the same compound, the “antibiotic susceptibility S/I/R” value (host strain YMC15/09/R1869) was “S”, the “susceptibility category (S/I/R)” value (host strain YMC15/09/R1869) was “S” and the “antibiotic susceptibility S/I/R” value (host strain YMC16/01/P11) was “S”. For the same compound, the “susceptibility category (S/I/R)” value (host strain YMC16/01/P11) was “S”, the “antibiotic susceptibility S/I/R” value (host strain YMC16/01/R123) was “S” and the “susceptibility category (S/I/R)” value (host strain YMC16/01/R123) was “S”. The “antibiotic susceptibility S/I/R” value (host strain YMC16/01/R198) was “S”, the “susceptibility category (S/I/R)” value (host strain YMC16/01/R198) was “S” and the “antibiotic susceptibility S/I/R” value (host strain YMC16/01/R353) was “S”. The “susceptibility category (S/I/R)” value (host strain YMC16/01/R353) was “S”, the “antibiotic susceptibility S/I/R” value (host strain YMC16/01/R380) was “S” and the “susceptibility category (S/I/R)” value (host strain YMC16/01/R380) was “S”. For the same compound, the “antibiotic susceptibility S/I/R” value (host strain YMC16/01/R397) was “S”, the “susceptibility category (S/I/R)” value (host strain YMC16/01/R397) was “S” and the “antibiotic susceptibility S/I/R” value (host strain YMC16/01/R405) was “S”. For the same compound, the “susceptibility category (S/I/R)” value (host strain YMC16/01/R405) was “S”, the “antibiotic susceptibility S/I/R” value (host strain YMC16/03/R4461) was “S” and the “susceptibility category (S/I/R)” value (host strain YMC16/03/R4461) was “S”. For the same compound, the “antibiotic susceptibility S/I/R” value (host strain YMC16/05/R2210) was “S”, the “susceptibility category (S/I/R)” value (host strain YMC16/05/R2210) was “S” and the “antibiotic susceptibility S/I/R” value (host strain YMC16/07/R2512) was “S”. The “susceptibility category (S/I/R)” value (host strain YMC16/07/R2512) was “S”, the “antibiotic susceptibility S/I/R” value (host strain YMC16/09/R2471) was “S” and the “susceptibility category (S/I/R)” value (host strain YMC16/09/R2471) was “S”. The “antibiotic susceptibility S/I/R” value (host strain YMC16/10/R2537) was “S”, the “susceptibility category (S/I/R)” value (host strain YMC16/10/R2537) was “S” and the “antibiotic susceptibility S/I/R” value (host strain YMC16/12/B11422) was “S”. The “susceptibility category (S/I/R)” value (host strain YMC16/12/B11422) was “S”, the “antibiotic susceptibility S/I/R” value (host strain YMC16/12/B11449) was “S” and the “susceptibility category (S/I/R)” value (host strain YMC16/12/B11449) was “S”. The “antibiotic susceptibility S/I/R” value (host strain YMC16/12/B13325) was “S”, the “susceptibility category (S/I/R)” value (host strain YMC16/12/B13325) was “S” and the “antibiotic susceptibility S/I/R” value (host strain YMC16/12/P503) was “R”. The “susceptibility category (S/I/R)” value (host strain YMC16/12/P503) was “R”, the “antibiotic susceptibility S/I/R” value (host strain YMC16/12/R4637) was “R” and the “susceptibility category (S/I/R)” value (host strain YMC16/12/R4637) was “R”. For the same compound, the “antibiotic susceptibility S/I/R” value (host strain YMC17/01/B8053) was “S”, the “susceptibility category (S/I/R)” value (host strain YMC17/01/B8053) was “S” and the “antibiotic susceptibility S/I/R” value (host strain YMC17/01/B10087) was “S”. For the same compound, the “susceptibility category (S/I/R)” value (host strain YMC17/01/B10087) was “S”, the “antibiotic susceptibility S/I/R” value (host strain YMC17/01/B12075) was “S” and the “susceptibility category (S/I/R)” value (host strain YMC17/01/B12075) was “S”. The “antibiotic susceptibility S/I/R” value (host strain YMC17/01/B13454) was “S”, the “susceptibility category (S/I/R)” value (host strain YMC17/01/B13454) was “S” and the “antibiotic susceptibility S/I/R” value (host strain YMC17/01/P518) was “S”. The “susceptibility category (S/I/R)” value (host strain YMC17/01/P518) was “S”, the “antibiotic susceptibility S/I/R” value (host strain YMC17/01/R2812) was “R” and the “susceptibility category (S/I/R)” value (host strain YMC17/01/R2812) was “R”. For the same compound, the “susceptibility category (S/I/R)” value (host strain YMC17/02/B14) was “I”, the “susceptibility category (S/I/R)” value (host strain YMC17/02/B87) was “I” and the “antibiotic susceptibility S/I/R” value (host strain YMC17/02/B721) was “S”. The “susceptibility category (S/I/R)” value (host strain YMC17/02/B721) was “S”, the “antibiotic susceptibility S/I/R” value (host strain YMC17/02/B4039) was “S” and the “susceptibility category (S/I/R)” value (host strain YMC17/02/B4039) was “S”. For the same compound, the “antibiotic susceptibility S/I/R” value (host strain YMC17/02/B4520) was “S”, the “susceptibility category (S/I/R)” value (host strain YMC17/02/B4520) was “S” and the “antibiotic susceptibility S/I/R” value (host strain YMC17/02/B4864) was “S”. For the same compound, the “susceptibility category (S/I/R)” value (host strain YMC17/02/B4864) was “S”, the “antibiotic susceptibility S/I/R” value (host strain YMC17/02/B8414) was “S” and the “susceptibility category (S/I/R)” value (host strain YMC17/02/B8414) was “S”. For the same compound, the “antibiotic susceptibility S/I/R” value (host strain YMC17/02/P523) was “S”, the “susceptibility category (S/I/R)” value (host strain YMC17/02/P523) was “S” and the “antibiotic susceptibility S/I/R” value (host strain YMC17/02/R541) was “R”. The “susceptibility category (S/I/R)” value (host strain YMC17/02/R541) was “R”, the “antibiotic susceptibility S/I/R” value (host strain YMC17/02/R2392) was “S” and the “susceptibility category (S/I/R)” value (host strain YMC17/02/R2392) was “S”. The “antibiotic susceptibility S/I/R” value (host strain YMC17/03/B4730) was “S”, the “susceptibility category (S/I/R)” value (host strain YMC17/03/B4730) was “S” and the “susceptibility category (S/I/R)” value (host strain YMC17/03/B5000) was “I”. For the same compound, the “antibiotic susceptibility S/I/R” value (host strain YMC17/03/P971) was “S”, the “susceptibility category (S/I/R)” value (host strain YMC17/03/P971) was “S” and the “antibiotic susceptibility S/I/R” value (host strain YMC17/03/R348) was “S”. For the same compound, the “susceptibility category (S/I/R)” value (host strain YMC17/03/R348) was “S”, the “antibiotic susceptibility S/I/R” value (host strain YMC17/03/R585) was “R” and the “susceptibility category (S/I/R)” value (host strain YMC17/03/R585) was “R”. The “antibiotic susceptibility S/I/R” value (host strain YMC17/03/R1888) was “S”, the “susceptibility category (S/I/R)” value (host strain YMC17/03/R1888) was “S” and the “antibiotic susceptibility S/I/R” value (host strain YMC17/03/R3279) was “S”. For the same compound, the “susceptibility category (S/I/R)” value (host strain YMC17/03/R3279) was “S”, the “antibiotic susceptibility S/I/R” value (host strain YMC17/03/R4077) was “S” and the “susceptibility category (S/I/R)” value (host strain YMC17/03/R4077) was “S”. For the same compound, the “antibiotic susceptibility S/I/R” value (host strain YMC17/03/R4607) was “R”, the “susceptibility category (S/I/R)” value (host strain YMC17/03/R4607) was “R” and the “antibiotic susceptibility S/I/R” value (host strain YMC17/04/R488) was “S”. The “susceptibility category (S/I/R)” value (host strain YMC17/04/R488) was “S”, the “antibiotic susceptibility S/I/R” value (host strain YMC17/04/R640) was “S” and the “susceptibility category (S/I/R)” value (host strain YMC17/04/R640) was “S”. The “antibiotic susceptibility S/I/R” value (host strain YMC/17/05/R1095) was “S” and the “susceptibility category (S/I/R)” value (host strain YMC/17/05/R1095) was “S”.
